Measured values taken from patent US20250381254A1, “Augmented Acid Alpha-Glucosidase For The Treatment Of Pompe Disease” (Amicus Therapeutics, Inc., priority 2015, published 2025).
Where two headings read alike, the source gives them in different places.

Columns and labels:
[1] = Clinical study: plasma miglustat PK; assay type: in vivo, human; conditions: for AUC0-∞/BW (geometric mean) / CL/F (arithmetic mean) / Cmax/BW (geometric mean) / βt1/2 (arithmetic mean) / AUC(0-t) / AUC(0-inf) / Cmax / Vd/F / Tmax: with 20 mg/kg ATB200; for AUC(0-t) / AUC(0-inf) / Cmax / Vd/F / Tmax: human, plasma, 20 mg/kg; for AUC(0-t): read-out: AUC0-t (geometric mean); for AUC(0-inf): read-out: AUC0-∞ (geometric mean); for Cmax: read-out: Cmax (geometric mean); for Vd/F: read-out: Vz/F (arithmetic mean); for Tmax: read-out: tmax (median)
Description: The study will be conducted in 2 stages.
• Safety: review of AEs, including SAEs and IARs; review of concomitant medications and nondrug therapies; vital signs (HR, RR, BP, and temperature); weight; PE; ECG; clinical safety laboratory assessments (serum chemistry, hematology, and urinalysis); and urine pregnancy test • PD: urinary Hex4 and serum CPK • Immunological: blood samples for anti-recombinant acid α-glucosidase antibody titers (anti-recombinant acid α-glucosidase total and neutralizing antibody titers, and antibody cross-reactivity with alglucosidase alfa) and blood samples for measurement of pro-inflammatory cytokines and other biomarkers of immune system activation. If needed, IgE measurements will also be performed. • Serial 24-hour PK: During Period 4 (Visit 6, Day 43 and Visit 8, Day 71) and Period 5 (Visit 9, Day 85 and Visit 11, Day 113), blood sampling for plasma acid α-glucosidase activity levels, total acid α-glucosidase protein concentrations, and miglustat concentrations will be taken for all subjects.
In Tables 12-15 and FIGS. 24-26, the single dose (SD) measurements were taken after a single administration of miglustat and ATB200, and the multiple dose (MD) measurements were taken after the third biweekly administration of miglustat and ATB200.

ATB200 = ATB200 (Homo sapiens, UniProt P10253, H199R/R223H/V780I); test: Unfolding of ATB200 protein vs. temperature with and without miglustat (FIG. 1); assay type: physicochemical; conditions: various pH
Description: Without being bound by theory, it is believed that miglustat acts as a pharmacological chaperone for the recombinant human acid α-glucosidase ATB200 and binds to its active site. […] However, the binding of miglustat to the active site of ATB200 also can result in inhibition of the enzymatic activity of ATB200 by preventing the natural substrate, glycogen, from accessing the active site.

[2] = 130 mg miglustat, multiple dose
[3] = oral, 130 mg miglustat, multiple dose
[4] = oral, 130 mg miglustat, single dose
[5] = oral, 260 mg miglustat, single dose

**Q.** Which “dose proportionality of kinetics” value ([1]; 130 mg and 260 mg) does the source give for `CCCCN1C[C@H](O)[C@@H](O)[C@H](O)[C@H]1CO` [miglustat, (2R,3R,4R,5S)-1-butyl-2-(hydroxymethyl)piperidine-3,4,5-triol] here?
**A.** Its value is “dose-proportional kinetics”.

**Q.** What about the “AUC0-∞/BW (geometric mean)” value [1, 2] of the same compound?
**A.** The value was 142 ng·h/mL/kg.

**Q.** And the “CL/F (arithmetic mean)” value [1, 2]?
**A.** Its value is 10.8 L/h.

**Q.** And the “Cmax/BW (geometric mean)” value [1, 2]?
**A.** Its value is 16.3 ng/mL/kg.

**Q.** And the “βt1/2 (arithmetic mean)” value [1, 2]?
**A.** The value was 5.6 h.

**Q.** And the “AUC0-∞/BW (geometric mean)” value ([1]; 130 mg miglustat, single dose)?
**A.** The value was 154 ng·h/mL/kg.

**Q.** And the “CL/F (arithmetic mean)” value ([1]; 130 mg miglustat, single dose)?
**A.** Its value is 9.93 L/h.

**Q.** And the “Cmax/BW (geometric mean)” value ([1]; 130 mg miglustat, single dose)?
**A.** Its value is 19.2 ng/mL/kg.

**Q.** What about the “βt1/2 (arithmetic mean)” value ([1]; 130 mg miglustat, single dose) of the same compound?
**A.** The value was 4.5 h.

**Q.** And the “AUC0-∞/BW (geometric mean)” value ([1]; 260 mg miglustat, single dose)?
**A.** Its value is 325 ng·h/mL/kg.

**Q.** What about the “CL/F (arithmetic mean)” value ([1]; 260 mg miglustat, single dose) of the same compound?
**A.** The value was 9.51 L/h.

**Q.** And the “Cmax/BW (geometric mean)” value ([1]; 260 mg miglustat, single dose)?
**A.** Its value is 41.5 ng/mL/kg.

**Q.** And the “βt1/2 (arithmetic mean)” value ([1]; 260 mg miglustat, single dose)?
**A.** The value was 5.5 h.

**Q.** What about the AUC(0-t) [1, 3] of the same compound?
**A.** Its AUC(0-t) is 11500 ng·h/mL.

**Q.** And the AUC(0-inf) [1, 3]?
**A.** Its AUC(0-inf) is 12200 ng·h/mL.

**Q.** What about the Cmax [1, 3] of the same compound?
**A.** The Cmax was 1390 ng/mL.

**Q.** What about the Vd/F [1, 3] of the same compound?
**A.** The Vd/F was 88.1 L.

**Q.** And the Tmax [1, 3]?
**A.** The Tmax was 3 h.

**Q.** And the AUC(0-t) [1, 4]?
**A.** The AUC(0-t) was 12600 ng·h/mL.

**Q.** What about the AUC(0-inf) [1, 4] of the same compound?
**A.** The AUC(0-inf) was 13200 ng·h/mL.

**Q.** And the Cmax [1, 4]?
**A.** The Cmax was 1650 ng/mL.

**Q.** What about the Vd/F [1, 4] of the same compound?
**A.** Its Vd/F is 65.4 L.

**Q.** What about the Tmax [1, 4] of the same compound?
**A.** The Tmax was 2.75 h.

**Q.** What about the AUC(0-t) [1, 5] of the same compound?
**A.** Its AUC(0-t) is 26600 ng·h/mL.

**Q.** What about the AUC(0-inf) [1, 5] of the same compound?
**A.** Its AUC(0-inf) is 28000 ng·h/mL.

**Q.** And the Cmax [1, 5]?
**A.** The Cmax was 3550 ng/mL.

**Q.** And the Vd/F [1, 5]?
**A.** The Vd/F was 79.2 L.

**Q.** And the Tmax [1, 5]?
**A.** The Tmax was 2.75 h.

**Q.** And the “time of peak plasma concentrations into the ATB200 infusion” value ([1]; oral, 1 hour prior to ATB200 infusion)?
**A.** The value was 2 h.

**Q.** What about the “percentage of unfolded ATB200 protein” value (ATB200) of the same compound?
**A.** Its value is “decrease the percentage of unfolded ATB200 protein”.
